Laboratory results: patent US10016383B2, “Inhibitors of metallo-β-lactamase-enzymes” (McMaster University, priority 2013, dated 2018)
Read-outs that look alike come from different tables or passages of the source.

Key:
[1] = rats, i.v.; cited from earlier work
K. pneumoniae N11-2218 [2] = assay: Microdilution checkerboard / MIC; type: cell-based, Klebsiella pneumoniae; conditions: meropenem alone
Description: FIC values were determined by standard methods^27 setting up checkerboards with 8 concentrations of each meropenem and AM-A in serial ½ dilutions. Experiments were done in duplicate and the mean used for calculation. The MIC for each compound was the lowest concentration of compound showing no growth. The FIC for each compound was calculated as the concentration of the compound in the presence of co-compound for a well showing no growth, divided by the MIC for that compound. The FIC index is the sum of the two FICs.

K. pneumoniae N11-2218 [3] = assay: Mouse lethal systemic infection, survival; type: in vivo, CD1 mice; conditions: monotherapy (alone)
Excerpt: (§1) All animals were housed in specific pathogen-free units in the Central Animal Facility at McMaster University. All experimental protocols were approved by, and performed in accordance with the McMaster Animal Research Ethics Board. Female CD1 mice were purchased from Charles River.
(§2) Mice were infected intraperitoneally (ip) with a dose of 2×10^6 colony forming units (cfu) of Klebsiella pneumoniae N11-2218 for all organ bacterial load experiments, or with a dose of 5×10^7cfu for all survival experiments. For all organ bacterial load experiments, mice were euthanized 48 hours post infection, and spleen and liver were harvested. Organs were placed into 1 mL sterile PBS on ice, and then homogenized (Mixer Mill 400; Retsch). Organ homogenates were then serially diluted in PBS, and plated on Brilliant Green agar (Oxoid) for cfu enumeration. For survival curves, mice were monitored for endpoint. For all experiments, mice were treated 30 minutes post infection with a specified subcutaneous dose of either PBS, meropenem, AM-A inhibitor, or a combination of both antibiotic and inhibitor.

K. pneumoniae N11-2218 [4] = assay: Mouse systemic infection, organ bacterial load; type: in vivo, CD1 mice; conditions: meropenem alone, doses below 50 mg/kg
Excerpt: as §1, §2

Which LD50 [1] does the source give for `O=C(O)CN[C@H](CN[C@@H](CC(=O)O)C(=O)O)C(=O)O` [AM-B, aspergillomarasime B] here?
Its LD50 is 660 mg/kg.

For `C[C@@H](O)[C@H]1C(=O)N2C(C(=O)O)=C(S[C@@H]3CN[C@H](C(=O)N(C)C)C3)[C@H](C)[C@H]12` [meropenem, reference compound], which MIC (K. pneumoniae N11-2218 [2]; Klebsiella pneumoniae, N112218, read-out: MIC) is on record?
The MIC was 32 µg/mL.

What about the MIC (K. pneumoniae N11-2218 [2]) of the same compound?
The MIC was 32 µg/mL.

What about the “prevention of lethal infection” value (K. pneumoniae N11-2218 [3]) of the same compound?
The value was “unable to prevent lethal infection”.

What about the “response of infection to meropenem monotherapy” value (K. pneumoniae N11-2218 [4]) of the same compound?
The value was “resistant”.
